Laboratory results published in US20040067955A1, “Pyridazinone compound and pharmaceutical use thereof” (Fujisawa Pharmaceutical Co. Ltd., priority 2002, published 2004).

Columns and labels:
ddY mice = experiment: Anticatalepsy activity in mouse (haloperidol-induced catalepsy, bar test); assay type: in vivo; conditions: test compound 3.2 mg/kg orally, ddY mice (n=7); haloperidol 0.32 mg/kg i.p. 30 min later; measured 30 min after injection
Protocol: The test compound (3.2 mg/kg) was administered orally with ddY mice (n=7). Then, haloperidol (0.32 mg/kg) was injected intraperitoneally 30 min. after the administration of the compound. Thirty min. After the injection, the cataleptic responses of mice were measured. The forelimbs of each mouse were placed on a 3 cm high, 3 mm wide horizontal bar, and the duration of cataleptic posture was measured for up to 30 sec.

human A1 receptor = target: T1, human A1 receptor (Homo sapiens, UniProt P30542); experiment: Adenosine antagonistic activity: radioligand binding with [3H]DPCPX (4.5 nM)
T1 sequence (P30542 1-326): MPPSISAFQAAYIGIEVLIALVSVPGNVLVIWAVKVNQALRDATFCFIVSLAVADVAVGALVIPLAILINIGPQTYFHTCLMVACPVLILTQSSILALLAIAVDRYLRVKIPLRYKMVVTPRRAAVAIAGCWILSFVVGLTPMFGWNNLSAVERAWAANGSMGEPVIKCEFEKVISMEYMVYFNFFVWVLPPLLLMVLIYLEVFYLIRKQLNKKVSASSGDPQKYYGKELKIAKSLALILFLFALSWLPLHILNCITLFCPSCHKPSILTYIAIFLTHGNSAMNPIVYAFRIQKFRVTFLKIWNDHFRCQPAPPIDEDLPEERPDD
Protocol: (§1) The adenosine antagonistic activity [Ki(nM)] of the test compound was examined by radioligand binding techniques using 8-cyclopentyl-1,3-dipropylxanthine, [dipropyl-2,3-^3H (N)] ([^3H]DPCPX, 4.5 nM) for human A1 receptor and [^3H]CGS 21680 (20 nM) for human A2a receptor.

human A2a receptor = human A2a receptor (Homo sapiens, UniProt P29274); experiment: Adenosine antagonistic activity: radioligand binding with [3H]CGS 21680 (20 nM)
Chain of human A2a receptor (P29274 whole entry): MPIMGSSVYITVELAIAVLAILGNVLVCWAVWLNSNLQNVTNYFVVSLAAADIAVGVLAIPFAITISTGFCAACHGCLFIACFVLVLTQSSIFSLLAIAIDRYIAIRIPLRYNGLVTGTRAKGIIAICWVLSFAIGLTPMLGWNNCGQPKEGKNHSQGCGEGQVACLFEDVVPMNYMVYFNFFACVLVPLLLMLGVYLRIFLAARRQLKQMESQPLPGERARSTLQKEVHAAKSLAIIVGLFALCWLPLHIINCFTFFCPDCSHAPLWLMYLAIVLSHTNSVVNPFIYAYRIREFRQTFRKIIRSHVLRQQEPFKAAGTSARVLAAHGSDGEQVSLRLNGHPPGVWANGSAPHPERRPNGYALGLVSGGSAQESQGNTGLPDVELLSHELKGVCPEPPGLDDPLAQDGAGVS
Protocol: as §1

Ki (human A1 receptor) [nM]	melting point [°C]	Ki (human A2a receptor) [nM]	SMILES	Manifestation rate of catalepsy (number of mouse) (ddY mice)
0.56	197 to 198	0.65	CC(C)n1nc(-c2cc(C#N)c(N)nc2-c2ccccc2)ccc1=O [Example 3, 2-Amino-5-(1-isopropyl-6-oxo-1,6-dihydro-3-pyridazinyl)-6-phenylnicotinonitrile]	0/7
0.46	212 to 213	2.7	CC(C)n1nc(-c2cc(-c3ccn[nH]3)cnc2-c2ccccc2)ccc1=O [Example 24, 2-isopropyl-6-[2-phenyl-5-(pyrazol-5-yl)-3-pyridyl]-3(2H)-pyridazinone]	0/7
0.31	207 to 208	1.24	CC(C)n1nc(-c2cc(NC(=O)c3ccccc3)cnc2-c2ccccc2)ccc1=O [Example 27, N-[5-(1-isopropyl-6-oxo-1,6-dihydro-3-pyridazinyl)-6-phenyl-3-pyridyl]benzamide]	0/7
1.99		2.06	CC(C)n1cc(-c2cc(Cl)c(N)nc2-c2ccccc2)cc(Cl)c1=O [Example 119, 6′-Amino-5,5′-dichloro-1-isopropyl-2′-phenyl-3,3′-bipyridin-6(1H)-one]	0/7
